We go through 22 compounds from patent US12325697B2 (Nimbus Clio, Inc., priority 2021, dated 2025).

Test [1] has as its system Phospho-Zap70 (Y-319) in Jurkat wild-type (clone E6-1) cells. Briefly: Jurkat pZAP70 HTRF Assay. The conditions noted are these: Homo sapiens, anti-CD3 5 μg/ml, 3 hr, read-out: ZAP70 Jurkat EC50. It is filed as cell-based. On the technique in general: In TR-FRET formats the signal depends on donor and acceptor labels being close together.
For test [2], the target named is Recombinant human Cbl-b (aa 36-427) (Homo sapiens (Human), UniProt Q13191). Briefly: Cbl-b Biochemical Assay (TR-FRET). The conditions noted are these: read-out: TR-FRET hCbl-b IC50. An outline of the steps:
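Two-step TR-FRET: 6 nM biotinylated Cbl-b preincubated 30-60 min with compound, then 60 min at RT with 1-2.5 nM Src-Zap70 and 0.5 mM ATP in HEPES pH 7.0 buffer, 1% DMSO. Stopped with 5 mM EDTA plus 100 nM UBE2D2-Ub-FL-BODIPY and 1 nM streptavidin-Tb, 60 min; 520 nm signal; IC50 from 4-parameter fit.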

The test system of test [3] is Jurkat (clone E6-1) cells, NFAT luciferase reporter. Briefly: Jurkat Reporter Assay (NFAT Luciferase). Format: cell-based. The conditions noted are these: Homo sapiens, anti-CD3 stimulation, 6 hr, read-out: Jurkat NFAT EC50. (In general: A reporter such as luciferase makes a cellular process visible.)

The structures appear in SMILES notation. Where only a bound is given, the exact number is not on record here.

Chain of Recombinant human Cbl-b (aa 36-427) (Q13191 36-427): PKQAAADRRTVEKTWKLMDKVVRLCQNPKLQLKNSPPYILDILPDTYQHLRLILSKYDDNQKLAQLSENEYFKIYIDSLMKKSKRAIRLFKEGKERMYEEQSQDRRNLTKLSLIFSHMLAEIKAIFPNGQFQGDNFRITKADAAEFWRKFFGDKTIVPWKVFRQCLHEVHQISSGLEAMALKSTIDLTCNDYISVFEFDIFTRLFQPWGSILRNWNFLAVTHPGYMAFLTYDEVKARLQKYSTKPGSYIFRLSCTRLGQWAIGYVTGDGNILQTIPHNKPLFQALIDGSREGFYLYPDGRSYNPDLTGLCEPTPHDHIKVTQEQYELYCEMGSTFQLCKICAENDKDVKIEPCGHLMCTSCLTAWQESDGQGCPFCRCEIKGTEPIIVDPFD

Take `Cn1cnnc1-c1cc(C#N)ccc1-c1cc(C2CC2)nc(N2Cc3c(cc(CNCCO)cc3C(F)(F)F)C2=O)c1` [AEO-2, 4-[2-Cyclopropyl-6-(6-{[(2-hydroxyethyl)amino]methyl}-1-oxo-4-(trifluoromethyl)-3H-isoindol-2-yl)pyridin-4-yl]-3-(4-methyl-1,2,4-triazol-3-yl) benzonitrile]: the concentration giving a half-maximal response (EC50) in test [1] and in test [3] was under 200 nM throughout. Further, the half-maximal inhibitory concentration (IC50) (as a rule, the point on the concentration scale where inhibition reaches its midpoint) in test [2] was at most 200 nM.

In the case of `COCCNCc1cc2c(c(C(F)(F)F)c1)CN(c1cc(-c3ccc(C#N)cc3-c3nncn3C)cc(C3CC3)n1)C2=O` [AEN-1, 4-[2-Cyclopropyl-6-(6-{[(2-methoxyethyl)amino]methyl}-1-oxo-4-(trifluoromethyl)-3H-isoindol-2-yl)pyridin-4-yl]-3-(4-methyl-1,2,4-triazol-3-yl)benzonitrile], the EC50 in test [1] and in test [3] was under 200 nM each time. In test [2], the IC50 is at most 200 nM.

Regarding `CCNc1cc(-c2ccc(C#N)cc2-c2nncn2C)cc(N2Cc3c(cc(CN[C@@H]4CCC[C@@H]4F)cc3C(F)(F)F)C2=O)n1` [AET-6, 4-[2-(Ethylamino)-6-[6-({[(1R,2S)-2-fluorocyclopentyl]amino}methyl)-1-oxo-4-(trifluoromethyl)-3H-isoindol-2-yl]pyridin-4-yl]-3-(4-methyl-1,2,4-triazol-3-yl) benzonitrile], the EC50 in test [1] and in test [3] was under 200 nM in each case. Also, in test [2], the IC50 was at most 200 nM.

In the case of `CCNc1cc(-c2ccc(C#N)cc2-c2nncn2C)cc(N2Cc3c(cc([C@@H](O)CN(C)C)cc3C(F)(F)F)C2=O)n1` (single isomer, unassigned) [AGK-1], the EC50 (commonly the midpoint of the concentration-response curve) in test [1] is 200 to 1000 nM; in test [3], under 200 nM. Also, in test [2], the IC50 was at most 200 nM.

For the compound `Cn1cnnc1-c1cc(C#N)ccc1-c1cccc(N2Cc3c(cc(CNCC4(O)CCC4)cc3C(F)(F)F)C2=O)c1` [ADV-1, 3′-[6-({[(1-Hydroxycyclobutyl)methyl]amino}methyl)-1-oxo-4-(trifluoromethyl)-3H-isoindol-2-yl]-2-(4-methyl-1,2,4-triazol-3-yl)-[1,1′-biphenyl]-4-carbonitrile], the EC50 in test [1] and in test [3] was under 200 nM in each case. Moreover, the 50% inhibitory concentration (IC50) in test [2] was at most 200 nM.

In the case of `C[C@H](NCC1(O)CCC1)c1cc2c(c(C(F)(F)F)c1)CN(c1cc(-c3ccccc3-c3nncn3C)cc(C3CC3)n1)C2=O` (single isomer, unassigned) [AFT-2], the EC50 in test [1] and in test [3] was under 200 nM each time. Moreover, in test [2], the concentration for half-maximal inhibition (IC50) is at most 200 nM.

In the case of `C=C(C)c1cc(-c2ccc(F)cc2-c2nncn2C)cc(N2Cc3ccc(CNCC4(O)CCC4)cc3C2=O)n1` [AFW-3, 2-{4-[4-Fluoro-2-(4-methyl-1,2,4-triazol-3-yl)phenyl]-6-(prop-1-en-2-yl)pyridin-2-yl}-6-({[(1-hydroxycyclobutyl)methyl]amino}methyl)-3H-isoindol-1-one], the EC50 in test [1] and in test [3] was under 200 nM throughout. In addition, the IC50 in test [2] is at most 200 nM.

For the compound `Cn1cnnc1-c1cnn(C)c1-c1cc(C2CC2)nc(N2Cc3ccc(CNCC4(O)CCC4)cc3C2=O)c1` [AFI-1, 2-{6-Cyclopropyl-4-[2-methyl-4-(4-methyl-1,2,4-triazol-3-yl)pyrazol-3-yl]pyridin-2-yl}-6-({[(1-hydroxycyclobutyl)methyl]amino}methyl)-3H-isoindol-1-one], the concentration for a half-maximal effect (EC50) in test [1] and in test [3] was under 200 nM throughout. In addition, in test [2], the 50% inhibitory concentration (IC50) is at most 200 nM.

On to `Cn1cnnc1-c1cc(F)ccc1-c1cc(C2CC2)nc(N2Cc3ccc(CNCC(C)(C)O)cc3C2=O)c1` [AHG-2, 2-{6-Cyclopropyl-4-[4-fluoro-2-(4-methyl-1,2,4-triazol-3-yl)phenyl]pyridin-2-yl}-6-{[(2-hydroxy-2-methylpropyl)amino]methyl}-3H-isoindol-1-one], for which the EC50 in test [1] and in test [3] was under 200 nM each time. Further, the IC50 in test [2] is at most 200 nM.

With `CCNc1cc(-c2c(-c3nncn3C)cnn2C)cc(N2Cc3c(cc(CO[C@@H]4CCC[C@@H]4O)cc3C(F)(F)F)C2=O)n1` [ADH-1, 2-[6-(Ethylamino)-4-[2-methyl-4-(4-methyl-1,2,4-triazol-3-yl)pyrazol-3-yl]pyridin-2-yl]-6-({[(1R,2S)-2-hydroxycyclopentyl]oxy}methyl)-4-(trifluoromethyl)-3H-isoindol-1-one], the results for the half-maximal effective concentration (EC50) in test [1] and in test [3] were 200 to 1000 nM and under 200 nM, respectively. For the same compound, the 50% inhibitory concentration (IC50) in test [2] is at most 200 nM.

With `C[C@H]1CCCN(Cc2cc3c(c(C(F)(F)F)c2)CN(c2cccc(-c4ccc(C#N)cc4-c4nncn4C)c2)C3=O)C1` [ADQ-2, 2-(4-methyl-1,2,4-triazol-3-yl)-3′-(6-{[(3S)-3-methylpiperidin-1-yl]methyl}-1-oxo-4-(trifluoromethyl)-3H-isoindol-2-yl)-[1,1′-biphenyl]-4-carbonitrile], the EC50 in test [1] and in test [3] was under 200 nM throughout. The IC50 in test [2] was at most 200 nM.

`Cn1cnnc1-c1cc(F)ccc1-c1cc(C2CC2)nc(N2Cc3ccc(CN[C@@H]4CCC[C@@H]4O)cc3C2=O)c1` [AFO-2, 2-{6-Cyclopropyl-4-[4-fluoro-2-(4-methyl-1,2,4-triazol-3-yl)phenyl]pyridin-2-yl}-6-({[(1R,2S)-2-hydroxycyclopentyl]amino}methyl)-3H-isoindol-1-one]: the EC50 in test [1] and in test [3] was under 200 nM each time. Moreover, in test [2], the IC50 is at most 200 nM.

As for `CCNc1cc(-c2c(-c3nncn3C)cnn2C)cc(N2Cc3c(cc(CNCC4(O)CCC4)cc3C(F)(F)F)C2=O)n1` [ADJ-1, 2-[6-(Ethylamino)-4-[2-methyl-4-(4-methyl-1,2,4-triazol-3-yl)pyrazol-3-yl]pyridin-2-yl]-6-({[(1-hydroxycyclobutyl)methyl]amino}methyl)-4-(trifluoromethyl)-3H-isoindol-1-one], the EC50 in test [1] and in test [3] was under 200 nM in each case. For the same compound, the IC50 in test [2] was at most 200 nM.

Consider `CCNc1cc(-c2ccc(F)cc2-c2nncn2C)cc(N2Cc3c(cc(COCC4(N)CCC4)cc3C(F)(F)F)C2=O)n1` [AGS-2], for which the EC50 in test [1] and in test [3] was under 200 nM throughout. Moreover, in test [2], the IC50 was at most 200 nM.

Consider `CN1CC[C@@H](COCc2cc3c(c(C(F)(F)F)c2)CN(c2cc(-c4ccc(F)cc4-c4nncn4C)cc(C4CC4)n2)C3=O)C1` [AHI-4, 2-{6-Cyclopropyl-4-[4-fluoro-2-(4-methyl-1,2,4-triazol-3-yl)phenyl]pyridin-2-yl}-6-({[(3R)-1-methylpyrrolidin-3-yl]methoxy}methyl)-4-(trifluoromethyl)-3H-isoindol-1-one], for which the figures for the 50% effective concentration (EC50) in test [1] and in test [3] were 200 to 1000 nM and under 200 nM, respectively. In test [2], the IC50 is at most 200 nM.

On to `CCNc1cc(-c2ccc(C#N)cc2-c2nncn2C)cc(N2Cc3c(cc(CN[C@@H]4CCC[C@@H]4O)cc3C(F)(F)F)C2=O)n1` [AEL-2, 4-[2-(Ethylamino)-6-[6-({[(1R,2S)-2-hydroxycyclopentyl]amino}methyl)-1-oxo-4-(trifluoromethyl)-3H-isoindol-2-yl]pyridin-4-yl]-3-(4-methyl-1,2,4-triazol-3-yl) benzonitrile], for which the concentration for a half-maximal effect (EC50) in test [1] and in test [3] was under 200 nM throughout. Moreover, the IC50 in test [2] was at most 200 nM.

For `Cn1cnnc1-c1ccccc1-c1cc(C2CC2)nc(N2Cc3c(cc(CNCC4(O)CCC4)cc3C(F)(F)F)C2=O)c1` [ADZ-2, 2-{6-Cyclopropyl-4-[2-(4-methyl-1,2,4-triazol-3-yl)phenyl]pyridin-2-yl}-6-({[(1-hydroxycyclobutyl)methyl]amino}methyl)-4-(trifluoromethyl)-3H-isoindol-1-one], the EC50 in test [1] and in test [3] was under 200 nM each time. Moreover, the 50% inhibitory concentration (IC50) in test [2] was at most 200 nM.

Turning to `Cn1cnnc1-c1cc(F)ccc1-c1cc(C2CC2)nc(N2Cc3ccc(CNCC4(O)CCCC4)cc3C2=O)c1` [AGP-1, 2-{6-Cyclopropyl-4-[4-fluoro-2-(4-methyl-1,2,4-triazol-3-yl)phenyl]pyridin-2-yl}-6-({[(1-hydroxycyclopentyl)methyl]amino}methyl)-3H-isoindol-1-one], the EC50 in test [1] was 200 to 1000 nM; in test [3] it was under 200 nM. Also, in test [2], the IC50 was at most 200 nM.

On to `C[C@@H](NCC1(O)CCC1)c1cc2c(c(C(F)(F)F)c1)CN(c1cc(-c3ccccc3-c3nncn3C)cc(C3CC3)n1)C2=O` (single isomer, unassigned) [AFU-1], for which the concentration for a half-maximal effect (EC50) in test [1] and in test [3] was under 200 nM in each case. Moreover, the IC50 in test [2] is at most 200 nM.

On to `COCCNCc1ccc2c(c1)C(=O)N(c1cc(-c3ccc(C#N)cc3-c3nncn3C)cc(C3CC3)n1)C2` [AGO-2, 4-(2-Cyclopropyl-6-(6-(((2-methoxyethyl)amino)methyl)-1-oxoisoindolin-2-yl)pyridin-4-yl)-3-(4-methyl-4H-1,2,4-triazol-3-yl)benzonitrile], for which the half-maximal effective concentration (EC50) in test [1] and in test [3] was under 200 nM throughout. The concentration for half-maximal inhibition (IC50) in test [2] is at most 200 nM.

On to `CC(=O)c1cc2c(c(C(F)(F)F)c1)CN(c1cc(-c3ccccc3-c3nncn3C)cc(C3CC3)n1)C2=O` [AFS-1, 6-Acetyl-2-{6-cyclopropyl-4-[2-(4-methyl-1,2,4-triazol-3-yl)phenyl]pyridin-2-yl}-4-(trifluoromethyl)-3H-isoindol-1-one], for which the concentration for a half-maximal effect (EC50) in test [1] is 10000 to 50000 nM; in test [3], 200 to 1000 nM. Further, in test [2], the IC50 is at most 200 nM.

As for `CCNc1cc(-c2c(-c3nncn3C)cnn2C)cc(N2Cc3c(cc(CNCC4(OC)CCC4)cc3C(F)(F)F)C2=O)n1` [AEQ-3, 2-[6-(Ethylamino)-4-[2-methyl-4-(4-methyl-1,2,4-triazol-3-yl)pyrazol-3-yl]pyridin-2-yl]-6-({[(1-methoxycyclobutyl)methyl]amino}methyl)-4-(trifluoromethyl)-3H-isoindol-1-one], the EC50 in test [1] and in test [3] was under 200 nM in each case. Besides, the IC50 in test [2] is at most 200 nM.
